Consider three compounds from PMC12332667, “Role of Structural Modifications in Peptidomimetic Compounds as Potential Antimicrobial Agents against Staphylococcus aureus and Streptococcus pyogenes: Balancing Bioavailability, Safety, and Antimicrobial Activity” (ACS Omega, 2025).

One series has as its system P. vulgaris ATCC 6896. Put plainly: MIC/MBC broth microdilution, P. vulgaris. The series is classed as cell-based, Proteus vulgaris. The procedure, abridged: (§1)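 Bacteria inoculated at about 10^5 CFU/mL in BHI broth and incubated 18 h at 37 °C with serial dilutions of peptidomimetics, NCCLS microdilution format. MBC taken as lowest concentration leaving no more than 3 colonies (≥99.9% kill); MIC as lowest concentration without obvious growth (≥90% of untreated); solvent controls included.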
On the technique in general: Dilution methods test growth across graded concentrations, often in twofold steps.

The next series deals with S. intemrdius c.i. Put plainly: MIC/MBC broth microdilution, S. intermedius. The series is classed as cell-based, Staphylococcus intermedius. To be noted: H2O. The method in brief: as §1
The test system of series [1] is immortalized human keratinocytes (HaCaT). Put plainly: LDH cytotoxicity test, keratinocytes. To be noted: LDH, 48 h. It counts as cell-based. The method in brief: (§2)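 Cytotoxicity as LDH release after 48 h serum-free treatment (50, 100, 150 μg/mL peptidomimetics) of 46BR.1N fibroblasts or HaCaT keratinocytes seeded at 5000 per well. Absorbance 450 nm; untreated set as 0% and Triton X-100 1% as maximal release; Mann–Whitney U test, p ≤ 0.05.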

The next series relates to S. schleiferi c.i. Briefly: MIC/MBC broth microdilution, S. schleiferi. It counts as cell-based, Staphylococcus schleiferi. The procedure, abridged: as §1
In series [2] the test system is immortalized human HaCaT keratinocytes. Briefly: XTT cell proliferation assay, keratinocytes. The series is classed as cell-based. The procedure, abridged:
(§3)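 Proliferation was read as XTT absorbance at 490 nm after 4 h of reagent incubation, following 48 or 72 h of peptide exposure in serum-free HG-DMEM (37 °C, 5% CO2). The 72 h arm included a half-medium change with second peptide dose at 48 h. Significance by Mann–Whitney U, p ≤ 0.05.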

Another series deals with P. aeruginosa ATCC 10145. Briefly: MIC/MBC broth microdilution, P. aeruginosa. The series is classed as cell-based. The procedure, abridged:
as §1

Series [3] in a line: Stability / presence in human plasma. It counts as in vitro ADME. To be noted: 24 h incubation at 37 °C. Here is the method: Blood was drawn from healthy volunteers, and lithium/heparin holding tubes were used to remove the clot by centrifugation. The plasma was aliquoted in sterile conditions and incubated with the desired compounds for 24 h at 37 °C. The samples were prepared under sterile conditions following the previously described protocol. The samples were collected at six time points (0, 1, 2, 3, 6, and 24 h) for determining stability in water solutions, and time points of 0, 10, 20, 30, 40, 50, and 60 min, as well as of 2, 3, 6, and 24 h, for determining stability in human plasma. The analysis was performed by HPLC using a Kromasil C8 column (5 μm, 90 Å, 1.0 mm × 250 mm) monitored by a PDA or ELDS-LT II detector. For quantification, peak areas were compared to a calibration curve calculated by Shimadzu LCsolution Software (Kyoto, Japan). Graphs were prepared in GraphPad Prism (Boston, USA).

The test system of another series is S. aureus ATCC 43300. Put plainly: MIC/MBC broth microdilution, S. aureus. The series is classed as cell-based, Staphylococcus aureus. To be noted: S. aureus.
The subject of another series is S. mutans c.i. Put plainly: MIC/MBC broth microdilution, S. mutans. The series is classed as cell-based, Streptococcus mutans. The method in brief: as §1
In another series the test system is E. coli ATCC 25922. Put plainly: MIC/MBC broth microdilution, E. coli. It counts as cell-based, Escherichia coli. The method in brief: as §1
The next series concerns S. cohnii c.i. Put plainly: MIC/MBC broth microdilution, S. cohnii. It counts as cell-based, Staphylococcus cohnii. The procedure, abridged: as §1
The next series deals with fibroblasts (46BR.1N). Put plainly: LDH cytotoxicity test, fibroblasts. The series is classed as cell-based. To be noted: LDH, 48 h. The method in brief:
as §2

Series [4] has as its system human dermal fibroblast cell line (46BR.1N). Put plainly: XTT cell proliferation assay, fibroblasts. It counts as cell-based. The method in brief: as §3
(Tetrazolium dyes change colour on reduction, which living cells bring about.)

In a further series the test system is E. faecalis c.i. Briefly: MIC/MBC broth microdilution, E. faecalis. It counts as cell-based, Enterococcus faecalis. The method in brief:
as §1

In the next series the test system is S. pyogenes ATCC 19615. Put plainly: MIC/MBC broth microdilution, S. pyogenes. It counts as cell-based, Streptococcus pyogenes. To be noted: S. pyogenes. The method in brief: as §1
For series [5], the system named is K. pneumoniae ATCC 700603. Put plainly: MIC/MBC broth microdilution, K. pneumoniae. The series is classed as cell-based. The method in brief:
as §1

The conditions of series [6]: cited from earlier work.
The mark [7] stands for this setting: A-196 0.01–10 μg/mL, A-219 above 0.1 μg/mL, A-213 lower concentrations.
[8] abbreviates: up to 150 μg/mL, A-193 and A-179 after 48 h.

Converted amounts (≈) assume the structure as drawn. Read-outs that look alike come from different tables or passages of the source. Residues, ends and D or L forms follow the SMILES beside them.

A word on the MIC: it is the smallest concentration in the dilution series that meets the test's criterion for growth inhibition. A lower MIC goes with a more susceptible organism. The MBC is the lowest tested concentration that kills the bacteria rather than only halting them. A low value points to greater bactericidal potency.

Regarding `CC(C)C[C@H](NC(=O)[C@H](CCCNC(=N)N)NC(=O)OCc1ccccc1)C(=O)N[C@H](C(=O)NCCc1ccccc1)C(C)C` [Compound A-196] (HELM PEPTIDE1{[O=C(OCc1ccccc1)[*:2]].R.L.V.[c1ccc(CCN[*:1])cc1]}$$$$V2.0), the minimum inhibitory concentration (MIC) against P. vulgaris ATCC 6896 (H2O) is greater than 512 µg/mL; against P. vulgaris ATCC 6896 (water additive DMSO), greater than 512 µg/mL; in the series with P. vulgaris ATCC 6896 (water additive EtOH), greater than 512 µg/mL; against S. intemrdius c.i., 32 µg/mL (≈ 51.3 µM); in the series on S. schleiferi c.i. (H2O), 16 µg/mL (≈ 25.6 µM); in the series with S. schleiferi c.i. (water additive DMSO) it was 16 µg/mL (≈ 25.6 µM). Further, the minimal inhibitory concentration (MIC) against S. schleiferi c.i. (water additive EtOH) is 16 µg/mL (≈ 25.6 µM); against P. aeruginosa ATCC 10145 (H2O), greater than 512 µg/mL; against P. aeruginosa ATCC 10145 (water additive DMSO), greater than 512 µg/mL; against P. aeruginosa ATCC 10145 (water additive EtOH), greater than 512 µg/mL; in the series with S. mutans c.i. (water additive DMSO) it was 32 µg/mL (≈ 51.3 µM); in the series with E. coli ATCC 25922 (H2O) it was greater than 512 µg/mL. Further, the MIC in the series on E. coli ATCC 25922 (water additive DMSO) is greater than 512 µg/mL; in the series on E. coli ATCC 25922 (water additive EtOH) it was greater than 512 µg/mL; against E. faecalis c.i. (H2O), greater than 512 µg/mL; in the series on E. faecalis c.i. (water additive DMSO), greater than 512 µg/mL; with E. faecalis c.i. (water additive EtOH), 512 µg/mL (≈ 821 µM); in series [5] (H2O) it was greater than 512 µg/mL. Also, the MIC in series [5] (water additive DMSO) and in [5] (water additive EtOH) was greater than 512 µg/mL each time. In addition, the “concentration at which cytotoxic effect starts” value (in [1]; with fibroblasts (46BR.1N)) was 150 µg/mL in each case. For the same compound, the MBC with S. schleiferi c.i. (H2O) amounted to 16 µg/mL (≈ 25.6 µM); in the series on S. schleiferi c.i. (water additive DMSO) it was 16 µg/mL (≈ 25.6 µM); in the series with S. schleiferi c.i. (water additive EtOH), 32 µg/mL (≈ 51.3 µM); in the series on S. aureus ATCC 43300 (H2O), 256 µg/mL (≈ 410 µM); in the series with S. aureus ATCC 43300 (water additive DMSO), 256 µg/mL (≈ 410 µM); with S. mutans c.i. (H2O), 256 µg/mL (≈ 410 µM). In addition, the MBC with S. cohnii c.i. (water additive DMSO) was 256 µg/mL (≈ 410 µM); with S. cohnii c.i. (water additive EtOH), 256 µg/mL (≈ 410 µM); in the series with E. faecalis c.i. (water additive EtOH), greater than 512 µg/mL; in the series on S. pyogenes ATCC 19615 (water additive DMSO), 256 µg/mL (≈ 410 µM); with S. pyogenes ATCC 19615 (water additive EtOH), 256 µg/mL (≈ 410 µM). Besides, the “pro-proliferative effect above control” value in series [2] (setting [7]) and in series [4] (setting [7]) was 5–20% throughout. The “antiproliferative effect (decrease vs control)” value in series [2] (setting [8]) and in series [4] (setting [8]) was “up to 50%” in each case. Besides, the “present in human plasma” value in [3] is listed as 85–90%.

For the compound `CNC(C)C1CCC(N)C(OC2C(N)CC(N)C(OC3OCC(C)(O)C(NC)C3O)C2O)O1` (stereo not shown) [gentamicin], the VD values in series [6] (in vivo) is listed as −0.699 to −0.432 log L/kg.

Turning to `CN[C@H](CC(C)C)C(=O)N[C@H]1C(=O)N[C@@H](CC(N)=O)C(=O)N[C@H]2C(=O)N[C@H]3C(=O)N[C@H](C(=O)N[C@H](C(=O)O)c4cc(O)cc(O)c4-c4cc3ccc4O)[C@H](O)c3ccc(c(Cl)c3)Oc3cc2cc(c3O[C@@H]2O[C@H](CO)[C@@H](O)[C@H](O)[C@H]2O[C@H]2C[C@](C)(N)[C@H](O)[C@H](C)O2)Oc2ccc(cc2Cl)[C@H]1O` [vancomycin], in [6] (reference number not given, probably ref 84, 85), the VD values is listed as −0.398 to 0 log L/kg.
